In test [1] the test system is Pseudomonas aeruginosa expressing AmpC (CL5701). The test is described as follows: Antibiotic activity: growth inhibitory concentration (OD600), Pseudomonas aeruginosa CL5701. In kind it is cell-based. The following applies: lowest concentration inhibiting 95% of bacterial growth; in the presence of β lactamase inhibitor Relebactam 4 μg/mL; 35±2° C. for 22 hours; tested range 100 μM to 0.098 μM. The procedure, abridged: (§1)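 Clinical strains at ~2×10^5 CFU/mL in cation-adjusted Mueller-Hinton II broth, with relebactam at 4 μg/mL final; compounds 100 μM to 0.098 μM final. After 22 hours at 35±2° C, OD600 read; MITC95 is lowest concentration giving 95% growth inhibition.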

Test [2] has as its system Klebsiella pneumoniae expressing KPC-1 (CL6569). The test is described as follows: Antibiotic activity: growth inhibitory concentration (OD600), Klebsiella pneumoniae CL6569. In kind it is cell-based. Particulars: lowest concentration inhibiting 95% of bacterial growth; in the presence of β lactamase inhibitor Relebactam 4 μg/mL; 35±2° C. for 22 hours; tested range 100 μM to 0.098 μM. The procedure, abridged: as §1

Where a name gives a salt, the structure may show the parent alone.

As to `C[n+]1cc(-c2ccc(OC[C@H](O/N=C(\C(=O)N[C@@H]3C(=O)N(OS(=O)(=O)[O-])C3(C)C)c3csc(N)n3)C(=O)O)cc2)cnc1N(CCN)CC1CNC1` [Example 83, (S)-3-((Z)-2-(((S)-2-(4-(2-((2-aminoethyl)(azetidin-3-ylmethyl)amino)-1-methylpyrimidin-1-ium-5-yl)phenoxy)-1-carboxyethoxy)imino)-2-(2-aminothiazol-4-yl)acetamido)-2,2-dimethyl-4-oxoazetidin-1-yl sulfate], the “PA_CL5701 MITC95” value in test [1] amounted to 1.563 µM. In test [2], the “KP_CL6569 MITC95” value was found to be 0.1953 µM.

For the compound `C[n+]1cc(-c2ccc(OC(CO/N=C(\C(=O)N[C@@H]3C(=O)N(OS(=O)(=O)[O-])C3(C)C)c3csc(N)n3)C(=O)O)cc2)cn1CCCN` (stereo partly drawn) [Example 84, (3S)-3-((2-(4-(1-(3-aminopropyl)-2-methyl-1H-pyrazol-2-ium-4-yl)phenoxy)-2-carboxyethoxy)imino)-2-(2-aminothiazol-4-yl)acetamido)-2,2-dimethyl-4-oxoazetidin-1-yl sulfate], the “PA_CL5701 MITC95” value in test [1] turned out to be 40 µM. The “KP_CL6569 MITC95” value in test [2] was 2.5 µM.

Regarding `CC1(C)[C@H](NC(=O)/C(=N\OCCOc2ccc(-c3nc4c([nH]3)CNCC4)cc2)c2csc(N)n2)C(=O)N1OS(=O)(=O)O` [Example 86, (S)-3-(2-(2-aminothiazol-4-yl)-2-((2-(4-(4,5,6,7-tetrahydro-3H-imidazo[4,5-c]pyridin-2-yl)phenoxy)ethoxy)imino)acetamido)-2,2-dimethyl-4-oxoazetidin-1-yl hydrogen sulfate], the “PA_CL5701 MITC95” value in test [1] amounted to 25 µM. For the same compound, in test [2], the “KP_CL6569 MITC95” value came out at 1.281 µM.

Take `C[n+]1cc(-c2ccc(OC[C@](C)(O/N=C(\C(=O)N[C@@H]3C(=O)N(OS(=O)(=O)O)C3(C)C)c3csc(N)n3)C(=O)O)cc2)ccc1NCCN` [Example 87, (S)-3-((Z)-2-((((S)-1-(4-(6-((2-aminoethyl)amino)-1-methylpyridin-1-ium-3-yl)phenoxy)-2-carboxypropan-2-yl)oxy)imino)-2-(2-aminothiazol-4-yl)acetamido)-2,2-dimethyl-4-oxoazetidin-1-yl sulfate]: the “PA_CL5701 MITC95” value in test [1] stood at 3.125 µM. In addition, in test [2], the “KP_CL6569 MITC95” value is 0.1953 µM.

On to `C[n+]1cc(-c2ccc(OC[C@H](O/N=C(\C(=O)N[C@@H]3C(=O)N(OS(=O)(=O)O)C3(C)C)c3csc(N)n3)C(=O)O)cc2)ccc1CCCN` [Example 88, (S)-3-((Z)-2-(((S)-2-(4-(6-(3-aminopropyl)-1-methylpyridin-1-ium-3-yl)phenoxy)-1-carboxyethoxy)imino)-2-(2-aminothiazol-4-yl)acetamido)-2,2-dimethyl-4-oxoazetidin-1-yl sulfate], for which the “PA_CL5701 MITC95” value in test [1] was determined as 3.125 µM. Moreover, in test [2], the “KP_CL6569 MITC95” value came out at 0.3906 µM.

On to `C[n+]1cc(-c2ccc(OC[C@@H](CO)O/N=C(\C(=O)N[C@@H]3C(=O)N(OS(=O)(=O)O)C3(C)C)c3csc(N)n3)cc2)ccc1NCCN` [Example 89, (S)-3-((Z)-2-((((R)-1-(4-(6-((2-aminoethyl)amino)-1-methylpyridin-1-ium-3-yl)phenoxy)-3-hydroxypropan-2-yl)oxy)imino)-2-(2-aminothiazol-4-yl)acetamido)-2,2-dimethyl-4-oxoazetidin-1-yl sulfate], for which, in test [1], the “PA_CL5701 MITC95” value was 50 µM. Further, the “KP_CL6569 MITC95” value in test [2] turned out to be 1.563 µM.

Consider `C[C@@H](COc1ccc(-c2ccc(NCCN)[n+](C)c2)cc1)O/N=C(\C(=O)N[C@@H]1C(=O)N(OS(=O)(=O)O)C1(C)C)c1csc(N)n1` [Example 90, (S)-3-((Z)-2-((((S)-1-(4-(6-((2-aminoethyl)amino)-1-methylpyridin-1-ium-3-yl)phenoxy)propan-2-yl)oxy)imino)-2-(2-aminothiazol-4-yl)acetamido)-2,2-dimethyl-4-oxoazetidin-1-yl sulfate], for which the “PA_CL5701 MITC95” value in test [1] was 25 µM. For the same compound, the “KP_CL6569 MITC95” value in test [2] was found to be 1.563 µM.

Take `C[n+]1cc(-c2ccc(NCC(O/N=C(\C(=O)N[C@@H]3C(=O)N(OS(=O)(=O)[O-])C3(C)C)c3csc(N)n3)C(=O)O)cc2)cn1CCCN` (stereo partly drawn) [Example 91, (3S)-3-(2-((2-((4-(1-(3-aminopropyl)-2-methyl-1H-pyrazol-2-ium-4-yl)phenyl)amino)-1-carboxyethoxy)imino)-2-(2-aminothiazol-4-yl)acetamido)-2,2-dimethyl-4-oxoazetidin-1-yl sulfate]: the “PA_CL5701 MITC95” value in test [1] was 12.5 µM. Also, the “KP_CL6569 MITC95” value in test [2] came out at 0.7813 µM.

For `CN(CC(O/N=C(\C(=O)N[C@@H]1C(=O)N(OS(=O)(=O)[O-])C1(C)C)c1csc(N)n1)C(=O)O)c1ccc(-c2cn(CCCN)[n+](C)c2)cc1` (stereo partly drawn) [Example 92, (3S)-3-(2-((2-((4-(1-(3-aminopropyl)-2-methyl-1H-pyrazol-2-ium-4-yl)phenyl)(methyl)amino)-1-carboxyethoxy)imino)-2-(2-aminothiazol-4-yl)acetamido)-2,2-dimethyl-4-oxoazetidin-1-yl sulfate], the “PA_CL5701 MITC95” value in test [1] amounted to 100 µM. Besides, the “KP_CL6569 MITC95” value in test [2] came to 6.25 µM.

In the case of `CC1(C)[C@H](NC(=O)/C(=N\O[C@@H](COc2ccc(C3CN=C(NCCN)NC3)cc2)C(=O)O)c2csc(N)n2)C(=O)N1OS(=O)(=O)O` (stereo partly drawn) [Example 94, (2S)-3-(4-(2-((2-aminoethyl)amino)-1,4,5,6-tetrahydropyrimidin-5-yl)phenoxy)-2-((((Z)-1-(2-aminothiazol-4-yl)-2-(((S)-2,2-dimethyl-4-oxo-1-(sulfooxy)azetidin-3-yl)amino)-2-oxoethylidene)amino)oxy)propanoic acid], in test [1], the “PA_CL5701 MITC95” value came out at 3.125 µM. Also, the “KP_CL6569 MITC95” value in test [2] is 0.1953 µM.

For the compound `CC1(C)[C@H](NC(=O)/C(=N\O[C@@](C)(COc2ccc(C3CN=C(NCCN)NC3)cc2)C(=O)O)c2csc(N)n2)C(=O)N1OS(=O)(=O)O` (stereo partly drawn) [Example 95, (2S)-3-(4-(2-((2-aminoethyl)amino)-1,4,5,6-tetrahydropyrimidin-5-yl)phenoxy)-2-((((Z)-1-(2-aminothiazol-4-yl)-2-(((S)-2,2-dimethyl-4-oxo-1-(sulfooxy)azetidin-3-yl)amino)-2-oxoethylidene)amino)oxy)-2-methylpropanoic acid], the “PA_CL5701 MITC95” value in test [1] is 3.125 µM. Also, the “KP_CL6569 MITC95” value in test [2] came to 0.3906 µM.

For the compound `Cn1c(-c2ccc(OC[C@H](O/N=C(\C(=O)N[C@@H]3C(=O)N(OS(=O)(=O)O)C3(C)C)c3csc(N)n3)C(=O)O)cc2F)cn(CCCN)c1=N` [Example 96, (S)-3-(4-(1-(3-aminopropyl)-2-imino-3-methyl-2,3-dihydro-1H-imidazol-4-yl)-3-fluorophenoxy)-2-((((Z)-1-(2-aminothiazol-4-yl)-2-(((S)-2,2-dimethyl-4-oxo-1-(sulfooxy)azetidin-3-yl)amino)-2-oxoethylidene)amino)oxy)propanoic acid], the “PA_CL5701 MITC95” value in test [1] was 6.25 µM. Moreover, in test [2], the “KP_CL6569 MITC95” value was found to be 0.3906 µM.

Turning to `CC1(C)[C@H](NC(=O)/C(=N\O[C@@H](COc2ccc(-c3cn(CCCN)[n+](CC4CNC4)c3)cc2)C(=O)O)c2csc(N)n2)C(=O)N1OS(=O)(=O)[O-]` [Example 97, (S)-3-((Z)-2-(((S)-2-(4-(1-(3-aminopropyl)-2-(azetidin-3-ylmethyl)-1H-pyrazol-2-ium-4-yl)phenoxy)-1-carboxyethoxy)imino)-2-(2-aminothiazol-4-yl)acetamido)-2,2-dimethyl-4-oxoazetidin-1-yl sulfate], the “PA_CL5701 MITC95” value in test [1] came out at 1.781 µM. Further, the “KP_CL6569 MITC95” value in test [2] worked out at 0.125 µM.

Regarding `CC1(C)[C@H](NC(=O)/C(=N\O[C@@H](COc2ccc(-c3ccc(NCCN)[n+](CC4CNC4)c3)cc2)C(=O)O)c2csc(N)n2)C(=O)N1OS(=O)(=O)[O-]` [Example 98, (S)-3-((Z)-2-(((S)-2-(4-(6-((2-aminoethyl)amino)-1-(azetidin-3-ylmethyl)pyridin-1-ium-3-yl)phenoxy)-1-carboxyethoxy)imino)-2-(2-aminothiazol-4-yl)acetamido)-2,2-dimethyl-4-oxoazetidin-1-yl sulfate], the “PA_CL5701 MITC95” value in test [1] is 1.563 µM. The “KP_CL6569 MITC95” value in test [2] amounted to 0.09766 µM.

Regarding `CC1(C)[C@H](NC(=O)/C(=N\O[C@@H](COc2ccc(-c3cnc(NCCN)[n+](CC4CNC4)c3)cc2)C(=O)O)c2csc(N)n2)C(=O)N1OS(=O)(=O)[O-]` [Example 99, (S)-3-((Z)-2-(((S)-2-(4-(2-((2-aminoethyl)amino)-1-(azetidin-3-ylmethyl)pyrimidin-1-ium-5-yl)phenoxy)-1-carboxyethoxy)imino)-2-(2-aminothiazol-4-yl)acetamido)-2,2-dimethyl-4-oxoazetidin-1-yl sulfate], the “PA_CL5701 MITC95” value in test [1] amounted to 3.125 µM. In test [2], the “KP_CL6569 MITC95” value worked out at 0.1953 µM.

As for `CC1(C)[C@H](NC(=O)/C(=N\O[C@@H](COc2ccc(-c3cn(CCCN)[n+](CCN)c3)cc2)C(=O)O)c2csc(N)n2)C(=O)N1OS(=O)(=O)[O-]` [Example 100, (S)-3-((Z)-2-(((S)-2-(4-(2-(2-aminoethyl)-1-(3-aminopropyl)-1H-pyrazol-2-ium-4-yl)phenoxy)-1-carboxyethoxy)imino)-2-(2-aminothiazol-4-yl)acetamido)-2,2-dimethyl-4-oxoazetidin-1-yl sulfate], the “PA_CL5701 MITC95” value in test [1] worked out at 3.125 µM. Also, the “KP_CL6569 MITC95” value in test [2] is 0.39 µM.

As to `C[n+]1cc(-c2ccc(OC[C@H](O/N=C(/C(=O)N[C@@H]3C(=O)N(OS(=O)(=O)[O-])C3(C)C)c3csc(N)n3)C(=O)O)cc2)cn1CCCNC[C@H](O)CO` [Example 101, (S)-3-((E)-2-(2-aminothiazol-4-yl)-2-(((S)-1-carboxy-2-(4-(1-(3-(((S)-2,3-dihydroxypropyl)amino)propyl)-2-methyl-1H-pyrazol-2-ium-4-yl)phenoxy)ethoxy)imino)acetamido)-2,2-dimethyl-4-oxoazetidin-1-yl sulfate], the “PA_CL5701 MITC95” value in test [1] came out at 12.5 µM. In test [2], the “KP_CL6569 MITC95” value came out at 0.7813 µM.

These data come from patent US11230543B2, “Biaryl monobactam compounds and methods of use thereof for the treatment of bacterial infections” (priority 2015, dated 2022).
